Measurements from publication PMC11539229 (Antimicrobial Agents and Chemotherapy, 2024).
In brackets after ≈: the same amount, converted by molar mass. Where two headings read alike, the source gives them in different places.

What was measured:
[1] = test system: drug-susceptible, MDR and XDR M.tb clinical isolates; experiment: microbe, parasite or virus in culture; format: cell-based, M. tuberculosis; conditions: drug-susceptible, MDR and XDR clinical isolates
[2] = mouse, in vivo
Text: (§1) The calculated exposures at EDmax for GSK138 and GSK693 were obtained using the intravenous mouse PK profiles fitting to a bicompartmental model to obtain those parameters to simulate the oral whole blood exposures at EDmax. Additionally, a monocompartmental model was used to fit the experimental oral pharmacokinetic studies in non-infected mouse together with measured plasma concentrations obtained from the sparse sampling in the experiment 2 in infected mice. Parameters obtained from this fitting were used to simulate the profile after GSK693 administration at 100, 200, and 300 mg/kg in the combination study and to calculate the associated exposures (see Table 2).

M. tuberculosis H37Rv = format: in vivo, BALB/c mice; conditions: for additional reduction of lung CFU counts on addition to RZ: vs RZ; for reduction of lung CFU counts: monotherapy 300 mg/kg; for effect of addition to BPaL on bactericidal activity: experiment 5
[3] = Sparse plasma sampling in infected mice of the combination study (experiment 2); format: in vivo, mouse; conditions: for Plasma AUC0–24 h: monocompartmental model, combination study; for Blood AUC0–24 h: plasma value transformed with blood/plasma ratio 1.79
Text: as §1
Tail vein blood was collected at the indicated time points. Briefly, an incision was made in the lateral tail vein. Blood (20–50 µL) was collected in BD Microtainer PST lithium heparin tubes from each mouse. The tubes were kept on ice before being centrifuged at 8,000 rpm for 5 min. The supernatant plasma (15–30 µL) was transferred to labeled microcentrifuge tubes, frozen, and stored at −80°C and then shipped on dry ice to GSK for further analysis.
Ten microliters of plasma or blood samples thawed at ambient temperature was mixed with 200 µL of acetonitrile (ACN):MeOH (80:20). After this protein precipitation step, samples were filtered using a 0.45-µm filter plate [Multiscreen Solvinert 0.45-μm polytetrafluoroethylene (PTFE), Millipore] and then filtered using a 0.2-µm filter [AcroPrep Advance 96 Filter Plate 350 µL, 0.2-µm polytetrafluoroethylene (PTFE)] to ensure sterilization prior to LC-MS analysis.

[4] = mouse, in vivo, 10 mg/kg; cited from earlier work

Cc1csc([C@](C)(O)c2nnc(Nc3ccn(Cc4csc(C)n4)n3)s2)n1 [GSK693]
MIC90 [1]: 1.87 µM (≈ 0.785 µg/mL)
exposure needed to achieve the maximum effect in monotherapy in the acute infection model [2]: 110,200 ng·h/mL
additional reduction of lung CFU counts on addition to RZ (M. tuberculosis H37Rv; experiment 1, 300 mg/kg, week 8): 1.44 log
additive effect when combined with sutezolid, linezolid, or pretomanid (lung CFU) (M. tuberculosis H37Rv; experiment 1, GSK693 300 mg/kg): No additive effect
reduction of lung CFU counts (M. tuberculosis H37Rv; experiment 1, 4 weeks of treatment): 1.34 log10
reduction of lung CFU counts (M. tuberculosis H37Rv; experiment 1, 8 weeks of treatment): 2.33 log10
additional reduction of lung CFU counts on addition to RZ (M. tuberculosis H37Rv; experiment 2, 100 mg/kg, 8 weeks): 1.17 log
additional reduction of lung CFU counts on addition to RZ (M. tuberculosis H37Rv; experiment 2, 200 mg/kg, 8 weeks): 1.28 log
additional reduction of lung CFU counts on addition to RZ (M. tuberculosis H37Rv; experiment 2, 300 mg/kg, 8 weeks): 0.76 log
activity of the combination with RZ vs RZ alone or RZ with isoniazid (M. tuberculosis H37Rv; mouse, in vivo): significantly more active
effect on the activity of the RZ combination (M. tuberculosis H37Rv; mouse, in vivo): significantly enhanced
efficacy in combination with pretomanid and pyrazinamide compared with moxifloxacin (M. tuberculosis H37Rv; mouse, in vivo, 300 mg/kg): nor was it as effective as moxifloxacin
Plasma AUC0–24 h ([3]; 100 mg/kg): 12,867 ng·h/mL
Blood AUC0–24 h ([3]; 100 mg/kg): 23,032 ng·h/mL
Plasma AUC0–24 h ([3]; 200 mg/kg): 27,337 ng·h/mL
Blood AUC0–24 h ([3]; 200 mg/kg): 48,933 ng·h/mL
Plasma AUC0–24 h ([3]; 300 mg/kg): 64,866 ng·h/mL
Blood AUC0–24 h ([3]; 300 mg/kg): 116,110 ng·h/mL

CO[C@H]1/C=C/O[C@@]2(C)Oc3c(C)c(O)c4c(O)c(c(/C=N/N5CCN(C)CC5)c(O)c4c3C2=O)NC(=O)/C(C)=C\C=C\[C@H](C)[C@H](O)[C@@H](C)[C@@H](O)[C@@H](C)[C@H](OC(C)=O)[C@@H]1C [rifampicin, reference compound]
AUC(0-t) ([3]; mouse, plasma, rifampicin co-administered with pyrazinamide, experiment 2, read-out: Plasma AUC0–24 h): 68500 ng·h/mL
AUC0–24 h [4]: 87,200–142,100 ng·h/mL

NNC(=O)c1ccncc1 [isoniazid, reference compound]
effect of addition to BPaL on bactericidal activity (M. tuberculosis H37Rv; 4 weeks of treatment): significantly increased the bactericidal activity
effect on the activity of the RZ combination (M. tuberculosis H37Rv; mouse, in vivo): did not enhance the activity

COc1c(N2C[C@@H]3CCCN[C@@H]3C2)c(F)cc2c(=O)c(C(=O)O)cn(C3CC3)c12 [moxifloxacin, reference compound]
effect of addition to BPaL on bactericidal activity (M. tuberculosis H37Rv; 4 weeks of treatment): trend toward enhanced activity
